# Source: the supplement of paper PMC10307832
# Compound: CC(C)(C)c1cc(NC(=O)Nc2ccc(-c3cn4c(n3)sc3cc(OCCN5CCOCC5)ccc34)cc2)no1 [Quizartinib]
# Experiment: relative viability (nuclei count vs DMSO), 5 days (fraction); higher = more cells survive
# Conditions: 0.001 µM
# Procedure, shortened: (§1)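 Lung cancer cell lines in 1536-well plates were kept overnight at 37 °C, then pinned with five library-drug doses (not always all listed) spaced by √10 on vehicle-anchored plates. After 5 days without medium change, cells were fixed, permeabilised and Hoechst-stained in one step, imaged at 4×, and nuclei were counted with MetaXpress. Viability is treated-well nuclei divided by vehicle-well nuclei, taken as the median over plates. Plates passed only with control CV below 25% and at least one doubling.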
row,Cell Line,relative viability
1,EKVX,0.704
2,EPLC-272H,0.878
3,NCI-H520,0.73
4,NCI-H1563,1
5,NCI-H650,0.849
6,RERF-LC-KJ,0.954
7,HCC-827,0.943
8,NCI-H2087,0.85
9,SK-MES-1,0.944
10,NCI-H1299,0.949
11,NCI-H1651,0.88
12,UMC-11,0.723
13,NCI-H1355,0.924
14,H3255,0.822
15,NCI-H1792,0.712
16,NCI-H647,0.794

row,Cell Line,relative viability
1,NCI-H1623,0.845
2,Calu-6,0.902
3,LCLC-97TM1,0.771
4,NCI-H1703,0.847
5,LXF-289,0.924
6,LU99A,0.889
7,NCI-H2023,0.881
8,NCI-H2228,0.856
9,NCI-H1437,0.942
10,NCI-H1395,0.93
11,LCLC-103H,0.87
12,SW 900,0.823
13,NCI-H2342,0.953
14,NCI-H441,0.919
15,ChaGo-K-1,0.773
16,NCI-H522,0.874

# Same assay, conditions: 0.003162 µM
row,Cell Line,relative viability
1,EKVX,1
2,EPLC-272H,1.08
3,NCI-H520,0.867
4,NCI-H1563,0.889
5,NCI-H650,0.863
6,RERF-LC-KJ,0.926
7,HCC-827,1.04
8,NCI-H2087,0.784
9,SK-MES-1,0.96
10,NCI-H1299,1.01
11,NCI-H1651,0.885
12,UMC-11,0.945
13,NCI-H1355,0.966
14,H3255,0.964
15,NCI-H1792,0.987
16,NCI-H647,0.946

row,Cell Line,relative viability
1,NCI-H1623,1.12
2,Calu-6,0.982
3,LCLC-97TM1,0.968
4,NCI-H1703,0.527
5,LXF-289,0.976
6,LU99A,0.906
7,NCI-H2023,0.999
8,NCI-H2228,0.854
9,NCI-H1437,0.963
10,NCI-H1395,0.949
11,LCLC-103H,0.983
12,SW 900,1.12
13,NCI-H2342,0.992
14,NCI-H441,0.946
15,ChaGo-K-1,1.05
16,NCI-H522,1.09

# Same assay, conditions: 0.01 µM
row,Cell Line,relative viability
1,EKVX,0.99
2,EPLC-272H,1.03
3,NCI-H520,0.96
4,NCI-H1563,0.989
5,NCI-H650,0.851
6,RERF-LC-KJ,1.03
7,HCC-827,0.978
8,NCI-H2087,1.24
9,SK-MES-1,1.09
10,NCI-H1299,1.02
11,NCI-H1651,1.06
12,UMC-11,0.983
13,NCI-H1355,0.876
14,H3255,0.969
15,NCI-H1792,0.811
16,NCI-H647,1.09

row,Cell Line,relative viability
1,NCI-H1623,0.905
2,Calu-6,1.05
3,LCLC-97TM1,0.918
4,NCI-H1703,0.256
5,LXF-289,1.05
6,LU99A,1.05
7,NCI-H2023,0.938
8,NCI-H2228,1.15
9,NCI-H1437,0.973
10,NCI-H1395,0.841
11,LCLC-103H,0.911
12,SW 900,0.745
13,NCI-H2342,1.02
14,NCI-H441,0.945
15,ChaGo-K-1,1.01
16,NCI-H522,1.04

# Same assay, conditions: 0.03162 µM
row,Cell Line,relative viability
1,EKVX,0.935
2,EPLC-272H,1.04
3,NCI-H520,0.903
4,NCI-H1563,0.646
5,NCI-H650,0.833
6,RERF-LC-KJ,0.99
7,HCC-827,1.03
8,NCI-H2087,1.09
9,SK-MES-1,0.732
10,NCI-H1299,1.03
11,NCI-H1651,0.924
12,UMC-11,0.966
13,NCI-H1355,1
14,H3255,1.03
15,NCI-H1792,0.853
16,NCI-H647,0.855

row,Cell Line,relative viability
1,NCI-H1623,0.977
2,Calu-6,0.879
3,LCLC-97TM1,0.964
4,NCI-H1703,0.264
5,LXF-289,0.957
6,LU99A,1.09
7,NCI-H2228,1.13
8,NCI-H1437,0.822
9,NCI-H1395,0.811
10,LCLC-103H,0.994
11,SW 900,0.803
12,NCI-H2342,0.88
13,NCI-H441,0.764
14,ChaGo-K-1,0.851
15,NCI-H522,0.901

# Same assay, conditions: 0.1 µM
row,Cell Line,relative viability
1,EKVX,1.05
2,EPLC-272H,0.761
3,NCI-H520,0.921
4,NCI-H1563,0.949
5,NCI-H650,0.967
6,RERF-LC-KJ,0.915
7,HCC-827,1.09
8,NCI-H2087,1.11
9,SK-MES-1,0.924
10,NCI-H1299,1.03
11,NCI-H1651,0.988
12,UMC-11,0.988
13,NCI-H1355,1.02
14,H3255,1.01
15,NCI-H1792,0.924
16,NCI-H647,1.09

row,Cell Line,relative viability
1,NCI-H1623,1.09
2,Calu-6,1.02
3,LCLC-97TM1,1
4,NCI-H1703,0.316
5,LXF-289,0.998
6,LU99A,0.842
7,NCI-H2023,1.01
8,NCI-H2228,0.927
9,NCI-H1437,0.849
10,NCI-H1395,1.16
11,LCLC-103H,0.971
12,SW 900,0.994
13,NCI-H2342,1.06
14,NCI-H441,1.14
15,ChaGo-K-1,1.05
16,NCI-H522,0.97

# Compound: COCC[n+]1c2c(n(Cc3cnccn3)c1C)C(=O)c1ccccc1C2=O [YM155]
# Experiment: as above
# Conditions: 0.002 µM
# Procedure, shortened: as §1
row,Cell Line,relative viability
1,EKVX,0.927
2,EPLC-272H,0.883
3,NCI-H520,1.01
4,NCI-H1563,0.971
5,NCI-H650,0.953
6,RERF-LC-KJ,1
7,HCC-827,0.986
8,NCI-H2087,1.07
9,SK-MES-1,0.956
10,NCI-H1299,0.984
11,NCI-H1651,0.929
12,UMC-11,0.889
13,NCI-H1355,0.927
14,H3255,0.953
15,NCI-H1792,0.754
16,NCI-H647,0.857

row,Cell Line,relative viability
1,NCI-H1623,0.934
2,Calu-6,0.992
3,LCLC-97TM1,0.791
4,NCI-H1703,0.808
5,LXF-289,0.998
6,LU99A,1.01
7,NCI-H2023,0.872
8,NCI-H2228,0.834
9,NCI-H1437,0.89
10,NCI-H1395,0.898
11,LCLC-103H,0.996
12,SW 900,0.71
13,NCI-H2342,0.947
14,NCI-H441,0.9
15,ChaGo-K-1,0.906
16,NCI-H522,0.913

# Same assay, conditions: 0.006325 µM
row,Cell Line,relative viability
1,EKVX,1.07
2,EPLC-272H,0.989
3,NCI-H520,1.03
4,NCI-H1563,0.966
5,NCI-H650,0.88
6,RERF-LC-KJ,0.973
7,HCC-827,1.05
8,NCI-H2087,1.03
9,SK-MES-1,1.02
10,NCI-H1299,0.977
11,NCI-H1651,0.992
12,UMC-11,0.998
13,NCI-H1355,1.01
14,H3255,0.998
15,NCI-H1792,0.884
16,NCI-H647,0.89

row,Cell Line,relative viability
1,NCI-H1623,1.29
2,Calu-6,0.996
3,LCLC-97TM1,0.955
4,NCI-H1703,0.807
5,LXF-289,1.01
6,LU99A,1.01
7,NCI-H2023,1.01
8,NCI-H2228,0.887
9,NCI-H1437,0.96
10,NCI-H1395,0.946
11,LCLC-103H,0.941
12,SW 900,0.828
13,NCI-H2342,0.997
14,NCI-H441,1.15
15,ChaGo-K-1,1
16,NCI-H522,0.923

# Same assay, conditions: 0.02 µM
row,Cell Line,relative viability
1,EKVX,1.01
2,EPLC-272H,1.01
3,NCI-H520,1.05
4,NCI-H1563,1.07
5,NCI-H650,1.01
6,RERF-LC-KJ,1.01
7,HCC-827,1.03
8,NCI-H2087,1.1
9,SK-MES-1,0.942
10,NCI-H1299,1.01
11,NCI-H1651,0.974
12,UMC-11,1.04
13,NCI-H1355,1.01
14,H3255,1.01
15,NCI-H1792,0.983
16,NCI-H647,0.925

row,Cell Line,relative viability
1,NCI-H1623,1.02
2,Calu-6,0.557
3,LCLC-97TM1,1.04
4,NCI-H1703,0.767
5,LXF-289,1.04
6,LU99A,0.984
7,NCI-H2023,0.866
8,NCI-H2228,1.02
9,NCI-H1437,0.983
10,NCI-H1395,1.12
11,LCLC-103H,0.932
12,SW 900,0.869
13,NCI-H2342,0.996
14,NCI-H441,0.795
15,ChaGo-K-1,0.987
16,NCI-H522,1.08

# Same assay, conditions: 0.06325 µM
row,Cell Line,relative viability
1,EKVX,0.857
2,EPLC-272H,1.15
3,NCI-H520,1.17
4,NCI-H1563,0.983
5,NCI-H650,0.909
6,RERF-LC-KJ,1.01
